The text below walks through data of patent US7887818B2, “Neospora caninum vaccine” (The United States of America as represented by the …, priority 2008, dated 2011).

Assay [1] has as its system NcCyP. The assay can be described thus: Western blot detection of anti-NcCyP antibodies in mouse sera (NcAg as antigen). Type of assay: in vivo, N. caninum. The settings on record: for percent of mice with detectable antibodies against NcCyP: overall data from both trials. The procedure:
(§1) Adult female BALB/c mice (10-12 weeks old; 15 per group; National Cancer Institute, Frederick, Md.) were immunized s.c. in the lower back with a dose of 20 μg of rNcCyP, rNcSRS2, or 20 μg each of NcCyP and NcSRS2 formulated with adjuvants ImmuMax-SR® (a chitosan-based oil emulsion formulation [U.S. Pat. No. 5,980,912; Nov. 9, 1999]; (Repros Therapeutics Inc., formerly Zonagen Inc., TX) and CpG (ImmunoEasy, Qiagen) (Groups 1, 2, and 3). Control groups received non-recombinant antigen formulated with adjuvants ImmuMax-SR® and CpG (Group 4) or RPMI 1640 alone (Groups 5 and 6). The mice were given a secondary immunization 3 weeks later with the same preparation used in the primary immunization. All mice except for those in Group 6 were challenged s.c. with 10^5 N. caninum tachyzoites (NC1 isolate) in 50 μl RPMI 1640 three weeks following the secondary immunization. Group 6 mice received RPMI 1640 only and remained uninfected throughout the experiment (Table 1). All mice were euthanized 3 weeks after challenge infection, and brain tissue and blood were collected at necropsy and processed for Neospora DNA and serum antibody analysis as described (Liddell et al. 1999b. Int J. Parasitol. 29: 1583-1587). Animal use and care of the present study was approved by the BARC Animal Use and Care Committee in accordance with appropriate regulations.
The presence of specific antibodies to NcCyP or NcSRS2 was also confirmed with Western blotting using NcAg as antigen (FIG. 5). In brief, N. caninum tachyzoite protein (equivalent to 10^6 tachyzoites/blot strip) were fractionated by SDS-PAGE under reducing conditions and transblotted to Immobilon membrane (Millipore) in a semi-dry blot apparatus (BioRad). Low-range molecular weight markers (BioRad) were electrophoresed in a separate well to allow for Mr estimation of native N. caninum tachyzoite protein. After blotting, the membranes were cut into vertical strips, treated with blocking agent (PBS-2% non-fat dry milk) for 30 min at RT, and then incubated for 2 hr at RT with a 1:100 dilution of serum from individual mice in each treatment group. The blot strips were then incubated for 1 hr with biotinylated goat anti-mouse IgG (H+L ch. sp., 1:1000 dilution, Sigma Chemical Co.), followed by alkaline-phosphatase-labeled avidin (1:25,000 dilution, Sigma), and developed with NBT-BCIP substrate (Pierce). The blots were washed 3 times between each incubation step with PBS-0.05% Tween 20 (Sigma).
(In general: A western blot detects proteins with antibodies after separation by electrophoresis.)

Assay [2] relates to NcSRS2. The assay can be described thus: ELISA of NcSRS2-specific antibody levels in sera of vaccinated mice. As to conditions: mouse sera 1:100, both trials, 3 weeks after challenge. Format: in vivo, N. caninum. The procedure: as §1, with “All mice were euthanized 3 weeks after challenge infection, and brain tissue and blood were collected at necropsy and processed for Neospora DNA and serum antibody analysis as described (Liddell et al. 1999b. Int J. Parasitol. 29: 1583-1587). Animal use and care of the present study was approved by the BARC Animal Use and Care Committee in accordance with appropriate regulations.” left out
(§2) Antigen-specific antibody levels of vaccinated mice were determined by ELISA using purified rNcCyP or rNcSRS2. […] The wells were incubated with alkaline phosphatase-labeled goat anti-mouse IgG (H+L ch. sp., 1:5,000, Sigma) for 1 hr at RT, followed by addition of p-nitrophenyl phosphate substrate (Sigma), and reading on a microtiter plate reader at […].

For assay [3], the system named is NcCyP. Briefly: ELISA of NcCyP-specific antibody levels in sera of vaccinated mice. Format: in vivo, N. caninum. The settings on record: mouse sera 1:100, both trials, 3 weeks after challenge. The procedure:
as §1, with “All mice were euthanized 3 weeks after challenge infection, and brain tissue and blood were collected at necropsy and processed for Neospora DNA and serum antibody analysis as described (Liddell et al. 1999b. Int J. Parasitol. 29: 1583-1587). Animal use and care of the present study was approved by the BARC Animal Use and Care Committee in accordance with appropriate regulations.” left out
as §2

The subject of assay [4] is NcSRS2. Briefly: Western blot detection of anti-NcSRS2 antibodies in mouse sera (NcAg as antigen). Format: in vivo, N. caninum. The procedure: as §1, with “regulations. […]” for “regulations.”
Assay [5] concerns N. caninum tachyzoites (NC1 isolate). The assay can be described thus: Vaccination and N. caninum tachyzoite challenge; N. caninum-specific Nc5 PCR on brain tissue. Type of assay: in vivo, BALB/c mice. The settings on record: for Positive/Total = number of mice brain positive for N. caninum DNA/total mice in the group: 3 weeks after s.c. challenge with 10^5 tachyzoites; for level of protection against challenge infection compared to control groups: vs non-recombinant- or non-vaccinated groups. The procedure: as §1
Mouse brain tissue was extracted for DNA using standard procedures (Jenkins et al. 2004, supra). The presence of N. caninum in brain tissue was determined by N. caninum-specific Nc5 PCR using Np6/Np21 primers (Muller et al. 1996. J. Clin. Microbiol. 34: 2850-2852; Yamage et al. 1996. J. Parasitol. 82: 272-279) and an internal standard to control for false negative reactions as described (Jenkins et al. 2004a, supra; Liddell et al. 1999a, supra).

Consider “Group 1: recombinant Neospora caninum cyclophilin protein (SEQ ID NO:2), 20 μg formulated with adjuvants ImmuMax-SR and CpG”, for which the “number of mice with detectable anti-NcCyP Ab in total mice of the group” value in the assay with NcCyP [1] (Trial I) is 11/14^3; in the assay with NcCyP [1] (Trial II) it was 12/15. Further, the “percent of mice with detectable antibodies against NcCyP” value with NcCyP [1] (listed as NcCyP) is listed as “about 77%”; in the assay on NcCyP [1] (listed as rNcCyP) it was 78%. Further, the “levels of NcSRS2-specific antibodies (ELISA) compared to other groups” value in the assay with NcSRS2 [2] is given as “higher (p<0.05)”. For the same substance, in the assay on NcCyP [3], the “levels of NcCyP-specific antibodies (ELISA) compared to other groups” value is “significantly higher (p<0.01)”. The “number of mice with detectable anti-NcSRS2 Ab in total mice of the group” value is 0/14 with NcSRS2 [4] (Trial I) and 0/15 with NcSRS2 [4] (Trial II). In addition, the “Positive/Total = number of mice brain positive for N. caninum DNA/total mice in the group” value in assay [5] (Trial I) is given as 1/15; in assay [5] (Trial II), 3/15. In addition, the “average percent of mice brain-positive for N. caninum” value in assay [5] (average of both trials) stood at 13%. Also, the percent protection in assay [5] (for both trials, (mice brain negative for Nc DNA/total)x100, formulated with ImmuMax-SR/CpG) is on record as 80-93%. Moreover, in assay [5] (mean positive/total from trials I and II), the “Positive/Total (Mean)” value is 2/15. Also, in assay [5] (range of trials I and II), the “percent of mice brain-positive for N. caninum, range over the trials” value was 7-20%. The “level of protection against challenge infection compared to control groups” value in assay [5] (listed as NcCyP) was “significantly higher protection”; in assay [5] (listed as rNcCyP), “higher (p<0.001) levels of protection”.
